Experiment [1] deals with T1, human Werner helicase (WRN, Uniprot Q14191, amino acids 517-1235 with L1074F point mutation; WRN-BV08) (Homo sapiens, UniProt Q14191, L1074F).
T1 construct: Uniprot Q14191, amino acids 517-1235 with L1074F point mutation; 8xHis (C, cleaved yes); TEV cleavage site (ENLYFQG) (C, cleaved yes); made in house; host or cells: Sf9 insect cells (baculovirus, pFastBac)
Description: WRN (BV08) ADP-Glo assay. The conditions noted are these: WRN-BV08 (aa 517-1235, L1074F); read-out: ADP-Glo_hWRN_IC50. The class given is biochemical. Summed up: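 WRN 517-1235 (L1074F, untagged, Sf9-expressed), 0.15 nM, preincubated with compound 15 min at 25 °C, then 60 min with […] and 0.1 nM DNA duplex in Bicine pH 7.5, 1 mM MgCl2, 1% DMSO. ADP-Glo luminescence; % inhibition vs NSC-617145 control, four-parameter IC50 fit.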
(In ADP-Glo the light output rises with the ADP produced.)

Experiment [2] concerns p21 induction in HCT 116 cells. The experiment can be described thus: p21 induction in cells (In-Cell Western, p21/GAPDH ratio). Format: cell-based. The conditions noted are these: Homo sapiens, HCT-116, 24 h, 24 h compound incubation, read-out: P21_EC50. In outline: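 HCT 116 cells treated 24 h at 37° C with 11-point, 2-fold dilutions starting typically at 10 μM, in duplicate. Fixed cells immunostained for p21 and GAPDH; 800/700 nm ratio normalised between DMSO and reference WRN inhibitor controls as percent activation. EC50 from non-linear regression.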

Here are results for 13 compounds from US20250206738A1, “WRN INHIBITORS” (Nimbus Wadjet, Inc., priority 2023, published 2025).

Some results are limits rather than exact numbers.

T1 sequence (Q14191 with tags, fused parts or gaps L1074F): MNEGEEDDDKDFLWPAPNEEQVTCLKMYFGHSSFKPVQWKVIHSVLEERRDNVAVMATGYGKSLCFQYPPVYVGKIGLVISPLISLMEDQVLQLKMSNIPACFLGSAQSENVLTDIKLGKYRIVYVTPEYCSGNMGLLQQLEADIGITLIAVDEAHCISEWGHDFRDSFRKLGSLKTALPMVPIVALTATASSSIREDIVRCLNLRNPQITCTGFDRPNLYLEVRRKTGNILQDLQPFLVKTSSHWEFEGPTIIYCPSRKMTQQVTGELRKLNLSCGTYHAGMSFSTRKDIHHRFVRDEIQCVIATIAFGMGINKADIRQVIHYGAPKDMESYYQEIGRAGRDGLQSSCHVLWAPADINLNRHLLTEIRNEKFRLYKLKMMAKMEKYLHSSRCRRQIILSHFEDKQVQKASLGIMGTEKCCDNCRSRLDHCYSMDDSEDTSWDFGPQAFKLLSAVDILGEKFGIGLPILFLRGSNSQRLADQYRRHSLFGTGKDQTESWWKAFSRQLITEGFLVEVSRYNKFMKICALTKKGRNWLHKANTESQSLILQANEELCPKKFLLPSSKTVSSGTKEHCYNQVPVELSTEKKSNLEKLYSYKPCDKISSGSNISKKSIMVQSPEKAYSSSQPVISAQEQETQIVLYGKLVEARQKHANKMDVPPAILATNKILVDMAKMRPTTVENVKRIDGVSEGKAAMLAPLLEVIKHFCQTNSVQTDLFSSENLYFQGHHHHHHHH

With `CCc1c(N2CCN(C(=O)c3ncnc(C)c3O)[C@H]3CC[C@@H]32)c(=O)c2nc(N(C)C)cnc2n1CC(=O)NC12CC(C(F)(F)F)(C1)C2` (relative stereo) [I-2, rel-2-(2-(dimethylamino)-6-ethyl-7-((1S,6S)-5-(5-hydroxy-6-methylpyrimidine-4-carbonyl)-2,5-diazabicyclo[4.2.0]octan-2-yl)-8-oxopyrido[2,3-b]pyrazin-5(8H)-yl)-N-(3-(trifluoromethyl)bicyclo[1.1.1]pentan-1-yl)acetamide], the IC50 in experiment [1] was in the range of 100 to 500 nM. The EC50 in experiment [2] is over 5000 nM.
The matching figures for `CCc1c(N2CCN(C(=O)c3cnn(C)c3)CC2)c(=O)n2nc(-c3ccnc(OC)c3)nc2n1CC(=O)NC1(C(O)c2ccccc2)CC1` (centres unmarked) [I-250, 2-(5-ethyl-2-(2-methoxypyridin-4-yl)-6-(4-(1-methyl-1H-pyrazole-4-carbonyl)piperazin-1-yl)-7-oxo-[1,2,4]triazolo[1,5-a]pyrimidin-4(7H)-yl)-N-(1-(hydroxy(phenyl)methyl)cyclopropyl)acetamide]: 100 to 500 nM and over 5000 nM.
For the compound `CCc1c(N2CCN(C(=O)c3ncnc(C)c3O)CC2)c(=O)c2nc(N(C)C)cnc2n1CC(=O)NC12CC(C(F)(F)F)(C1)C2` [I-1, 2-(2-(dimethylamino)-6-ethyl-7-(4-(5-hydroxy-6-methylpyrimidine-4-carbonyl)piperazin-1-yl)-8-oxopyrido[2,3-b]pyrazin-5(8H)-yl)-N-(3-(trifluoromethyl)bicyclo[1.1.1]pentan-1-yl)acetamide], in experiment [1], the IC50 lay within 100 to 500 nM. In addition, the EC50 in experiment [2] was over 5000 nM.
The matching figures for `CCc1c(N2CCN(C(=O)c3ccccc3C(=O)O)[C@H]3CC[C@@H]32)c(=O)c2nn(-c3ccnc(OC)c3)nc2n1CC(=O)NC12CC(C(C)C)(C1)C2` [I-207, 2-((1S,6S)-5-(5-ethyl-4-(2-((3-isopropylbicyclo[1.1.1]pentan-1-yl)amino)-2-oxoethyl)-2-(2-methoxypyridin-4-yl)-7-oxo-4,7-dihydro-2H-[1,2,3]triazolo[4,5-b]pyridin-6-yl)-2,5-diazabicyclo[4.2.0]octane-2-carbonyl)benzoic acid]: 5 to 50 nM and over 5000 nM.
With `CCc1c(N2CCN(C(=O)c3ncnc(C)c3O)C(C)(C)C2)c(=O)c2nn(-c3ccnc(OC)c3)nc2n1CC(=O)NC12CC(C3CC3)(C1)C2` [I-228, N-(3-cyclopropylbicyclo[1.1.1]pentan-1-yl)-2-(5-ethyl-6-(4-(5-hydroxy-6-methylpyrimidine-4-carbonyl)-3,3-dimethylpiperazin-1-yl)-2-(2-methoxypyridin-4-yl)-7-oxo-2,7-dihydro-4H-[1,2,3]triazolo[4,5-b]pyridin-4-yl)acetamide], the IC50 in experiment [1] was 5 to 50 nM. Besides, the EC50 in experiment [2] was in the range of 500 to 2000 nM.
As for `CCc1c(N2CCN(C(=O)c3c(OC)ncc(C)c3O)CC2)c(=O)n2nc(-c3ccnc(C)c3)nc2n1CC(=O)NC12CC(C(C)C)(C1)C2` [I-217, 2-(5-ethyl-6-(4-(4-hydroxy-2-methoxy-5-methylnicotinoyl)piperazin-1-yl)-2-(2-methylpyridin-4-yl)-7-oxo-[1,2,4]triazolo[1,5-a]pyrimidin-4(7H)-yl)-N-(3-isopropylbicyclo[1.1.1]pentan-1-yl)acetamide], the IC50 in experiment [1] was 5 to 50 nM. For the same compound, the EC50 in experiment [2] is at most 500 nM.
With `CCc1c(N2CCN(C(=O)c3c(O)ccc4ncoc34)CC2)c(=O)n2nc(-c3ccnc(OC)c3)nc2n1CCNC(=O)C12CC(C(F)(F)F)(C1)C2` [I-34, N-(2-(5-ethyl-6-(4-(6-hydroxybenzo[d]oxazole-7-carbonyl)piperazin-1-yl)-2-(2-methoxypyridin-4-yl)-7-oxo-[1,2,4]triazolo[1,5-a]pyrimidin-4(7H)-yl)ethyl)-3-(trifluoromethyl)bicyclo[1.1.1]pentyl-1-carboxamide], in experiment [1], the IC50 was over 500 nM. For the same compound, the EC50 in experiment [2] was over 5000 nM.
As for `CCc1c(N2CCN(C(=O)c3ncnc(C)c3O)[C@H]3CC[C@@H]32)c(=O)c2cn(-c3ccnc(OC)c3)nc2n1CC(=O)NC12CC(C3CC3)(C1)C2` [I-212, N-(3-cyclopropylbicyclo[1.1.1]pentan-1-yl)-2-(6-ethyl-5-((1S,6S)-5-(5-hydroxy-6-methylpyrimidine-4-carbonyl)-2,5-diazabicyclo[4.2.0]octan-2-yl)-2-(2-methoxypyridin-4-yl)-4-oxo-2,4-dihydro-7H-pyrazolo[3,4-b]pyridin-7-yl)acetamide], the IC50 in experiment [1] fell in the range of 5 to 50 nM. The EC50 in experiment [2] was at most 500 nM.
As to `CCc1c(N2CCN(C(=O)c3ncnc(C)c3O)CC2)c(=O)n2nc(-c3ccnc(OC)c3)nc2n1CC(=O)NC1CC(C(F)(F)F)C1` (centres unmarked) [I-27, 2-(5-ethyl-6-(4-(5-hydroxy-6-methylpyrimidine-4-carbonyl)piperazin-1-yl)-2-(2-methoxypyridin-4-yl)-7-oxo-[1,2,4]triazolo[1,5-a]pyrimidin-4(7H)-yl)-N-(3-(trifluoromethyl)cyclobutyl)acetamide], the IC50 in experiment [1] was 100 to 500 nM. The EC50 in experiment [2] was over 5000 nM.
Turning to `CCc1c(N2CCN(C(=O)c3ncnc(C)c3O)CC2)c(=O)n2nc(-c3ccnc(OC)c3)nc2n1CC(=O)NC12CC(C(C)C)(C1)C2` [I-40, 2-(5-ethyl-6-(4-(5-hydroxy-6-methylpyrimidine-4-carbonyl)piperazin-1-yl)-2-(2-methoxypyridin-4-yl)-7-oxo-[1,2,4]triazolo[1,5-a]pyrimidin-4(7H)-yl)-N-(3-isopropylbicyclo[1.1.1]pentan-1-yl)acetamide], the IC50 in experiment [1] lay in the range of 5 to 50 nM. In addition, in experiment [2], the EC50 is at most 500 nM.
On the same counts, the results for `CCc1c(N2CCN(C(=O)c3cccc4ncoc34)CC2)c(=O)n2nc(-c3ccnc(OC)c3)nc2n1CC(=O)NC12CC(C(C)C)(C1)C2` [I-213, 2-(6-(4-(benzo[d]oxazole-7-carbonyl)piperazin-1-yl)-5-ethyl-2-(2-methoxypyridin-4-yl)-7-oxo-[1,2,4]triazolo[1,5-a]pyrimidin-4(7H)-yl)-N-(3-isopropylbicyclo[1.1.1]pentan-1-yl)acetamide] are 5 to 50 nM and 500 to 2000 nM.
Take `CCc1c(N2CCN(C(=O)c3ncccc3C(=O)O)CC2)c(=O)c2nn(-c3ccnc(OC)c3)nc2n1CC(=O)NC12CC(C3CC3)(C1)C2` [I-216, 2-(4-(4-(2-((3-cyclopropylbicyclo[1.1.1]pentan-1-yl)amino)-2-oxoethyl)-5-ethyl-2-(2-methoxypyridin-4-yl)-7-oxo-4,7-dihydro-2H-[1,2,3]triazolo[4,5-b]pyridin-6-yl)piperazine-1-carbonyl)nicotinic acid]: the IC50 in experiment [1] fell in the range of 5 to 50 nM. In addition, the EC50 in experiment [2] is over 5000 nM.
The matching figures for `CCc1c(N2CCN(C(=O)c3ncnc(C)c3O)[C@H]3CCC[C@H]32)c(=O)c2nn(-c3ccnc(OC)c3)nc2n1CC(=O)NC12CC(C(C)C)(C1)C2` (relative stereo) [I-93, rel-2-{6-[(4aR,7aS)-4-(5-hydroxy-6-methylpyrimidine-4-carbonyl)-octahydro-1H-cyclopenta[b]pyrazin-1-yl]-5-ethyl-2-(2-methoxypyridin-4-yl)-7-oxo-2H,4H,7H-[1,2,3]triazolo[4,5-b]pyridin-4-yl}-N-[3-(propan-2-yl)bicyclo[1.1.1]pentan-1-yl]acetamide]: 5 to 50 nM and 500 to 2000 nM.
